The values below come from patent publication US4748175A, “Pyrimido[5,4-B][1,4]oxazine derivatives and pharmaceutical compositions containing them” (priority 1985, dated 1988).

Structures can show the parent of a compound that is named as a salt.

The subject of data set [1] is open-chest, anaesthetized cats. The data set is described as follows: MCF-increasing effect in open-chest, anaesthetized cats (strain gauge arch on left ventricle). Format: in vivo, cat. As to conditions: Felis catus, iv; 5 mg/kg i.v., open-chest anaesthetized cats; read-out: Increase in MCF as % of the initial value. The method, then:
(A) Investigation on anaesthetized cats
The animals were intravenously (i.v.) anaesthetized by 30 mg/kg of pentobarbital-sodium. After arranging the artificial respiration, the chest and pericardium were opened. A strain gauge arch was sutured onto the epicardial surface of the left ventricle [J. Pharm. Exp. Ther. 90, 26 (1947)]. The blood pressure was measured by a catheter inserted to the femoral artery and joined to a P 23 Db pressure transducer and electromanometer. The test compounds were administered either i.v. through a femoral vein cannule, or intraduodenally (i.d.) through the duodenum cannule. At the beginning of the experiment, 0.2 μg/kg of isoproterenol (IS) was i.v. given as an internal standard for checking the myocardial reactivity. Namely, the value of the peak MCF response can also be altered according to the individual animals in the case of each positive inotropic agent. Thus, IS was not used as a real reference drug.
The MCF responses were expressed in the percentage changes of the initial value: the effect on MCF of 5 mg/kg i.v. of the test compound was compared to that of 0.2 μg/kg i.v. of IS.

In data set [2] the test system is anaesthetized open-chest dogs. The data set is described as follows: Investigation on anaesthetized open-chest dogs (MCF, coronary flow, blood pressure, heart rate). The class given is in vivo, dog. As for the experimental part: (B) Investigation on anaesthetized dogs
The animals were i.v. anaesthetized by 35 mg/kg of pentobarbital-sodium. After opening the chest and pericardium, the lower ascending part of the left circumflex coronary artery was prepared and fitted with an electromagnetic flow probe for measuring the blood flow in the coronary artery. A strain gauge arch was placed onto the area supplied by this coronary artery for measuring the MCF. For determining the systemic blood pressure a femoral arterial cannule, for i.v. drug administration a femoral venous cannule was used. The dp/dt value was calculated from the pressure measured by a Millar type pressure transducer introduced to the left ventricle. All parameters were registered on a Beckman R 12 8-channel dynograph.

A further data set has as its system conscious cats. The data set is described as follows: Investigation on chronically catheterized conscious cats. Format: in vivo, cat. Particulars: oral 0.5 to 8.0 mg/kg. An excerpt: (C) Investigation on conscious cats
These animals were used according to either the method of Rabloczky and Mader ("Measurement of Systemic and Pulmonary Arterial Pressure in Conscious Animals", lecture on Congress of the International Union of Pharmacologists, Budapest, 1980) or to some modification thereof. The aorta and pulmonary artery were chronically catheterized for measuring both blood pressures. In the modification, the right ventricle was also catheterized for determining the dp/dtmax value.

The next data set deals with Ca-ATP-ase. The data set is described as follows: Ca-ATP-ase activity ex vivo after 5 days i.p. treatment. The class given is in vivo. As to conditions: 2 mg/kg i.p. daily for 5 days; corrected to 1 g of heart tissue. As for the experimental part:
The activity of this enzyme was measured according to Mc Namara [J. Biochem. 75, 795 (1974)].
In another experiment, compound 22 was given in a 2 mg/kg i.p. daily dose for 5 days. After taking an ex vivo sample, the enzyme activity was found as decreased by 30% (as corrected to 1 g of heart tissue).

Data set [3] can be described thus: Acute toxicity (LD50) in mice. As to conditions: mouse, in vivo. An excerpt:
(§1) The acute toxicity data of compound 22 are given as LD50 values in Table 2.

Data set [4] is described as follows: Acute toxicity (LD50) in rats. Particulars: rat, in vivo.
Source text: as §1

By LD50 is commonly meant the dose expected to kill half of the subjects tested. A low value points to greater toxicity. With `Cc1nc(NCCN2CCOCC2)c2c(n1)NC(=O)CO2` [Example 22, 2-Methyl-4-[2-(4-morpholinyl)-ethyl]-amino-6,7-dihydro-8H-pyrimido[5,4-b][1,4]oxazin-7-one dihydrochloride], the change in vivo at 5 mg/kg in data set [1] stood at 70%. Besides, in data set [2] (1 mg/kg i.d.), the MCF increase is reported as 35 to 40%. Also, in data set [2] (i.d. administration), the “MCF effect relative to amrinone” value was “at least 5 times”. Also, the “peak increase in dp/dtmax” value with conscious cats is given as “about 60%”. Further, the “Ca-ATP-ase enzyme activity decrease, ex vivo sample” value in the data set on Ca-ATP-ase amounted to 30%. The LD50 turned out to be 573 mg/kg in data set [3] (ip, Female); 572 mg/kg in data set [3] (ip, Male); 340 mg/kg in data set [3] (iv, Female); 324 mg/kg in data set [3] (iv, Male); 1420 mg/kg in data set [3] (po, Female); 1360 mg/kg in data set [3] (po, Male). Also, the 50% lethal dose (LD50) was found to be 260 mg/kg in data set [4] (ip, Female); 315 mg/kg in data set [4] (ip, Male); 232 mg/kg in data set [4] (iv, Female); 253 mg/kg in data set [4] (iv, Male); 810 mg/kg in data set [4] (po, Female); 830 mg/kg in data set [4] (po, Male).
